Data on 5 compounds can be found in patent publication US6214869A, “Heterocyclic cis cyclopropane derivatives as melatonergic agents” (Bristol-Myers Squibb, priority 1999, dated 2001).

By IC50 is commonly meant the point on the concentration scale where inhibition reaches its midpoint.

Some results are limits rather than exact numbers.

In this test the target is T1, ML1a human melatonin receptor (Homo sapiens, UniProt P48039).
T1 construct: expressed in transfected cells
T1 sequence (P48039 whole entry): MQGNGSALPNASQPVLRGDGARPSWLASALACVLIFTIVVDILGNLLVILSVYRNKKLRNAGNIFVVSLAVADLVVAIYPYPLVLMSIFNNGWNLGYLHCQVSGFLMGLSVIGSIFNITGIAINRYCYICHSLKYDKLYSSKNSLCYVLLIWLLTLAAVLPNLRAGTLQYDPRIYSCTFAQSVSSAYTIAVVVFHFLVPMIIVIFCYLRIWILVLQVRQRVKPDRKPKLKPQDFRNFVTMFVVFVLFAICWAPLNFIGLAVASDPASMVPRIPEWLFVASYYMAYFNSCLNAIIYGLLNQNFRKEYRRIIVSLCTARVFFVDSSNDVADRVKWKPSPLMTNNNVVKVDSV
Briefly: Melatonergic receptor binding (2-[125I]-iodomelatonin, membranes of NIH-3T3 cells expressing ML1a receptor). To be noted: 37° C. for 1 hour, read-out: Melatonin Binding Affinity (IC50). Here is the method: Melatonergic Receptor Binding Activity
(a) TME=50 mM Tris buffer containing 12.5 mM MgCl2, and 2 mM EDTA, pH 7.4 at 37° C. with concentrated HCl.
(b) Wash buffer: 20 mM Tris base containing 2 mM MgCl2, pH 7.4 at room temperature.
(c) 10^-4 M melatonin (10^-5 M final concentration).
(d) 2-[^125 I]-iodomelatonin, 0.1 M final concentration
The melatonin ML1a receptor cDNA was subcloned into pcDNA3 and introduced into NIH-3T3 cells using Lipofectamine. Transformed NIH-3T3 cells resistant to geneticin (G-418) were isolated, and single colonies expressing high levels of 2[^125 I]-iodomelatonin binding were isolated. Cells are maintained in DMEM supplemented with 10% calf serum and G-418 (0.5 g/liter). Cells are grown to confluency in T-175 flasks, scraped using Hank's balanced salt solution, and frozen at -80° C. For preparing membrane homogenates, pellets are thawed on ice, and resuspended in TME buffer in the presence of 10 μg/ml aprotinin and leupeptin, and 100 μM phenylmethylsulfonylfluoride. The cells were then homogenized using a dounce homogenizer, and centrifuged. The resulting pellet was resuspended with dounce homogenizer in TME (supplemented with the above protease inhibitors) and frozen. On the day of assay, the small aliquot was thawed on ice and resuspended in ice cold TME (1:50-1:100 v/v) and held on ice until assayed.
3. Incubation: 37° C. for 1 hour. Reaction is terminated by filtration. Filters are washed 3 times.
^a = (IC50) values for ML1a human melatonin receptor binding
Turning to `CC(C)C(=O)NC[C@H]1C[C@H]1c1cccc2c1CCO2` (relative stereo) [Example 5, (cis)-N-[[2-(2,3-Dihydrobenzofuran-4-yl)cycloprop-1-yl]methyl]-2-methyl propanamide], the half-inhibitory concentration (IC50) was less than 50 nM.
As to `CC(=O)NC[C@@H]1C[C@@H]1c1cccc2c1CCO2` (relative stereo) [Example 2, (cis)-N-[[2-(2,3-Dihydrobenzofuran-4-yl)cycloprop-1-yl]methyl]acetamide], the IC50 lay in the range of 50 to 200 nM.
The figure for `CCC(=O)NC[C@@H]1C[C@@H]1c1cccc2c1CCO2` (relative stereo) [Example 1, (cis)-N-[[2-(2,3-Dihydrobenzofuran-4-yl)cycloprop-1-yl]methyl]propanamide] is less than 50 nM; for `CCCC(=O)NC[C@@H]1C[C@@H]1c1cccc2c1CCO2` (relative stereo) [Example 4, (cis)-N-[[2-(2,3-Dihydrobenzofuran-4-yl)cycloprop-1-yl]methyl]butyramide] it is less than 50 nM; for `O=C(NC[C@@H]1C[C@@H]1c1cccc2c1CCO2)C1CC1` (relative stereo) [Example 3, (cis)-N-[[2-(2,3-Dihydrobenzofuran-4-yl)cycloprop-1-yl]methyl]cyclopropane carboxamide] it is less than 50 nM.
